The test system of data set [1] is fatty streak (macrophage-foam cells) of the aortic arch. As to the kind of experiment: Fatty streak area in the aortic arch (oil red O, image analysis) of cholesterol-fed hamsters. In kind it is in vivo, hamster. The settings on record: 8 weeks; for Fatty Streak Area: mean ± SD, 6 arches per group, pravastatin 34 mg/kg/day, captopril 100 mg/kg/day, combination 33 + 100 mg/kg/day. Here is the method: (§1) Male F1 hamsters were fed 0.3% cholesterol and 10% coconut oil.
Four sets of hamsters were established (n=12-13 per group). […] All animals were fed the same atherogenic diet. Pravastatin was delivered via the diet and captopril was gavaged daily. Hamsters in the control and pravastatin groups were gavaged with water. The animals were treated for 8 weeks. At 3 and 6 weeks the animals were fasted overnight and bled to determine plasma cholesterols and triglycerides. At 8 weeks, mean arterial pressure and heart rate were measured and then the animals were fixed by perfusing formalin. The aortic arch was stained with oil red O and the total area of the fatty streak (which consists of macrophage-foam cells) was measured by computer assisted image analysis.

For data set [2] the following is noted: hypercholesterolemic patients; cited from earlier work.
A short description of data set [3]: Plasma lipids of cholesterol-fed hamsters (control and treated). The class given is in vivo, hamster. The settings on record: mean ± SD, at 5 weeks, pravastatin 34 mg/kg/day, captopril 100 mg/kg/day, combination 33 + 100 mg/kg/day. On the procedure: as §1
Four sets of hamsters were established (n=12-13 per group). […] All animals were fed the same atherogenic diet. Pravastatin was delivered via the diet and captopril was gavaged daily. Hamsters in the control and pravastatin groups were gavaged with water. The animals were treated for 8 weeks. […] At 8 weeks, mean arterial pressure and heart rate were measured and then the animals were fixed by perfusing formalin. The aortic arch was stained with oil red O and the total area of the fatty streak (which consists of macrophage-foam cells) was measured by computer assisted image analysis.

The nature of data set [4]: Body weight, mean arterial pressure and heart rate of cholesterol-fed hamsters treated for 8 weeks. To be noted: at 8 weeks. The class given is in vivo, hamster. Here is the method: as §1
Four sets of hamsters were established (n=12-13 per group). The groups were controls, pravastatin (34 mg/kg/day), captopril (100 mg/kg/day) and pravastatin plus captopril (32 and 100 mg/kg/day, respectively). All animals were fed the same atherogenic diet. Pravastatin was delivered via the diet and captopril was gavaged daily. Hamsters in the control and pravastatin groups were gavaged with water. The animals were treated for 8 weeks. At 3 and 6 weeks the animals were fasted overnight and bled to determine plasma cholesterols and triglycerides. At 8 weeks, mean arterial pressure and heart rate were measured and then the animals were fixed by perfusing formalin. The aortic arch was stained with oil red O and the total area of the fatty streak (which consists of macrophage-foam cells) was measured by computer assisted image analysis.

Assay in data set [5]: as above
To be noted: mean ± SD, combination 33 + 100 mg/kg/day; for HR (Heart Rate) / MAP (Mean Arterial Pressure): at 8 weeks, pravastatin 34 mg/kg/day, captopril 100 mg/kg/day; for Body Weight: hamsters on atherogenic diet, 8 weeks, pravastatin 34 mg/kg/day (diet), captopril 100 mg/kg/day (gavage). In kind it is in vivo, hamster.

Marks after values point to notes of the source that are not given here.

As for `C[C@H](CS)C(=O)N1CCC[C@H]1C(=O)O` [Captopril, 1-[(2S)-3-mercapto-2-methylpropionyl]-L-proline], in data set [1], the “reduction of fatty streak (lesion) area compared to control group” value is listed as “approximately 50%” and the “Fatty Streak Area” value is on record as 245 ± 154^c μm^2 × 10^3. In data set [2], the “change of serum cholesterol” value is listed as −18% and the “increase of HDL” value is 27%. For the same molecule, in data set [3], the HDL-C was determined as 72 ± 23 mg/dL, the TC was determined as 660 ± 94 mg/dL, the TG was found to be 1105 ± 259 mg/dL and the “VLDL + LDL-C” value amounted to 588 ± 83 mg/dL. Moreover, in data set [4] (compared with control hamsters), the “heart rate less than control hamsters” value is 7% and the “mean arterial pressure lower than controls” value came out at 21%. Besides, in data set [5], the “HR (Heart Rate)” value is recorded as 348 ± 22^a beats/min, the “MAP (Mean Arterial Pressure)” value is on record as 110 ± 17^a mmHg and the “Body Weight” value was determined as 133 ± 12 g.
As for `CC[C@H](C)C(=O)O[C@H]1C[C@H](O)C=C2C=C[C@H](C)[C@H](CC[C@@H](O)C[C@@H](O)CC(=O)O)[C@H]21` [Pravastatin, pravastatin], in data set [1], the “reduction of fatty streak (lesion) area compared to control group” value is “approximately 50%” and the “Fatty Streak Area” value is 248 ± 119^b μm^2 × 10^3. In data set [3], the HDL-C is on record as 117 ± 7^a mg/dl, the TC is 456 ± 107^a mg/dl, the TG is listed as 185 ± 34^a mg/dl and the “VLDL + LDL-C” value is 339 ± 93^a mg/dl. For the same molecule, in data set [4] (34 mg/kg/day), the “effect on blood pressure” value is on record as “no effect” and the “effect on heart rate” value was “no effect”. Besides, in data set [5], the “HR (Heart Rate)” value amounted to 355 ± 27 beats/min, the “MAP (Mean Arterial Pressure)” value is recorded as 138 ± 13 mmHg and the “Body Weight” value came to 139 ± 8 g.

These data come from patent US6630502B2, “Method for preventing, stabilizing or causing regression of atherosclerosis employing a combination of a cholesterol lowering drug and an ace inhibitor” (E.R. Squibb & Sons, Inc., priority 1990, dated 2003).
